# US20050112573A1, “Method of detecting toxic substance” (priority 2001, published 2005)
# System: yeast genes (level of expressed mRNA)
# Experiment: DNA chip analysis of expressed mRNA of yeast genes after 2 h culture with a toxic chemical substance
# Assay type: cell-based, Saccharomyces cerevisiae S288C
# Details: for The level of expressed mRNA in the presence of chemical substance/ (ratio to absence): transport facilitation protein gene; for The level of expressed mRNA in the presence of chemical substance/: ratio to no chemical; for The level of expressed mRNA in the presence of chemical substance/ (ratio to absence of chemical substance): stress protein genes, DNA chip
# Procedure, shortened: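 S. cerevisiae S288C grown at 25° C in YPD; toxicant added at log phase at growth-inhibitory, non-lethal levels for 2 h, untreated cells as control. Poly(A) mRNA reverse-transcribed with Cy3/Cy5-dUTP, hybridized to whole-genome chip at 65° C >12 h; value is fluorescence ratio versus untreated.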
substance,measurement,setting,value
sodium dodecylbenzosulfonate [(17)],The level of expressed mRNA in the presence of chemical substance/in the absence of chemical substance,yeast gene YGR124W,0.7
same,The level of expressed mRNA in the presence of chemical substance/The level of expressed mRNA in the absence of chemical substance,yeast gene YGR136W,1.3
same,The level of expressed mRNA in the presence of chemical substance/ (ratio to absence),yeast gene YGR138C,0.7
same,The level of expressed mRNA in the presence of chemical substance/,yeast gene YGR153W,1.3
same,The level of expressed mRNA in the presence of chemical substance/in the absence of chemical substance,yeast gene YGR157W,0.8
same,The level of expressed mRNA in the presence of chemical substance/The level of expressed mRNA in the absence of chemical substance,yeast gene YGR189C,2.3
same,The level of expressed mRNA in the presence of chemical substance/in the absence of chemical substance,yeast gene YGR192C,1.1
same,The level of expressed mRNA in the presence of chemical substance/The level of expressed mRNA in the absence of chemical substance,yeast gene YGR213C,12.8
same,The level of expressed mRNA in the presence of chemical substance/,yeast gene YGR223C,1.1
same,The level of expressed mRNA in the presence of chemical substance/in the absence of chemical substance,yeast gene YGR244C,1.9
same,The level of expressed mRNA in the presence of chemical substance/,yeast gene YGR247W,1.0
same,The level of expressed mRNA in the presence of chemical substance/in the absence of chemical substance,yeast gene YGR254W,1.3
same,The level of expressed mRNA in the presence of chemical substance/The level of expressed mRNA in the absence of chemical substance,yeast gene YGR257C,1.1
same,"The level of expressed mRNA in the presence of chemical substance/ (in its absence), gene YGR287C","yeast gene YGR287C, ratio of DNA chip fluorescence intensity to that without chemical substance",1.0
same,"The level of expressed mRNA in the presence of chemical substance/ (in its absence), gene YGR288W","yeast gene YGR288W, ratio of DNA chip fluorescence intensity to that without chemical substance",1.2
same,The level of expressed mRNA in the presence of chemical substance/,yeast gene YGR295C,1.6
same,The level of expressed mRNA in the presence of chemical substance/ (ratio to absence of chemical substance),yeast gene YHL028W,1.6
same,The level of expressed mRNA in the presence of chemical substance/ (ratio to absence),yeast gene YHL035C,1.1
same,The level of expressed mRNA in the presence of chemical substance/ (ratio to absence),yeast gene YHL036W,1.0
same,The level of expressed mRNA in the presence of chemical substance/ (ratio to absence),yeast gene YHL040C,1.4
same,The level of expressed mRNA in the presence of chemical substance/,yeast gene YHL044W,0.8
same,The level of expressed mRNA in the presence of chemical substance/ (ratio to absence of chemical substance),yeast gene YHL046C,0.9
same,The level of expressed mRNA in the presence of chemical substance/The level of expressed mRNA in the absence of chemical substance,yeast gene YHR004C,1.4
same,The level of expressed mRNA in the presence of chemical substance/in the absence of chemical substance,yeast gene YHR018C,1.9
same,The level of expressed mRNA in the presence of chemical substance/in the absence of chemical substance,yeast gene YHR043C,1.4
same,The level of expressed mRNA in the presence of chemical substance/in the absence of chemical substance,yeast gene YHR044C,1.3
same,The level of expressed mRNA in the presence of chemical substance/ (ratio to absence),yeast gene YHR048W,0.7
same,The level of expressed mRNA in the presence of chemical substance/The level of expressed mRNA in the absence of chemical substance,yeast gene YHR071W,2.6
same,The level of expressed mRNA in the presence of chemical substance/ (ratio to absence),yeast gene YHR092C,0.9
same,The level of expressed mRNA in the presence of chemical substance/ (ratio to absence),yeast gene YHR094C,1.4
same,The level of expressed mRNA in the presence of chemical substance/in the absence of chemical substance,yeast gene YHR112C,1.6
same,The level of expressed mRNA in the presence of chemical substance/,yeast gene YHR116W,0.9
same,The level of expressed mRNA in the presence of chemical substance/The level of expressed mRNA in the absence of chemical substance,yeast gene YHR139C,1.4
same,The level of expressed mRNA in the presence of chemical substance/The level of expressed mRNA in the absence of chemical substance,yeast gene YHR142W,1.3
same,The level of expressed mRNA in the presence of chemical substance/,yeast gene YHR145C,1.3
same,The level of expressed mRNA in the presence of chemical substance/ (ratio to absence),yeast gene YHR175W,1.3
same,"The level of expressed mRNA in the presence of chemical substance/ (in its absence), gene YHR210C","yeast gene YHR210C, ratio of DNA chip fluorescence intensity to that without chemical substance",1.4
same,"The level of expressed mRNA in the presence of chemical substance/ (in its absence), gene YIL006W","yeast gene YIL006W, ratio of DNA chip fluorescence intensity to that without chemical substance",0.8
same,The level of expressed mRNA in the presence of chemical substance/ (ratio to absence of chemical substance),yeast gene YIL011W,0.8
same,The level of expressed mRNA in the presence of chemical substance/ (ratio to absence),yeast gene YIL022W,0.8
same,The level of expressed mRNA in the presence of chemical substance/ (ratio to absence),yeast gene YIL056W,1.5
same,The level of expressed mRNA in the presence of chemical substance/,yeast gene YIL058W,1.4
same,The level of expressed mRNA in the presence of chemical substance/,yeast gene YIL060W,1.2
same,The level of expressed mRNA in the presence of chemical substance/,yeast gene YIL065C,2.1
same,The level of expressed mRNA in the presence of chemical substance/,yeast gene YIL083C,0.9
same,The level of expressed mRNA in the presence of chemical substance/ (ratio to absence),yeast gene YIL088C,1.2
same,The level of expressed mRNA in the presence of chemical substance/,yeast gene YIL097W,1.1
same,The level of expressed mRNA in the presence of chemical substance/The level of expressed mRNA in the absence of chemical substance,yeast gene YIL123W,1.3
same,The level of expressed mRNA in the presence of chemical substance/The level of expressed mRNA in the absence of chemical substance,yeast gene YIL140W,0.7
same,The level of expressed mRNA in the presence of chemical substance/in the absence of chemical substance,yeast gene YIL160C,2.4
same,The level of expressed mRNA in the presence of chemical substance/ (ratio to absence),yeast gene YIL166C,1.2
same,The level of expressed mRNA in the presence of chemical substance/ (ratio to absence),yeast gene YIL170W,1.6
same,The level of expressed mRNA in the presence of chemical substance/in the absence of chemical substance,yeast gene YIR017C,1.5
same,The level of expressed mRNA in the presence of chemical substance/in the absence of chemical substance,yeast gene YIR030C,0.9
same,The level of expressed mRNA in the presence of chemical substance/,yeast gene YJL036W,1.4
same,The level of expressed mRNA in the presence of chemical substance/in the absence of chemical substance,yeast gene YJL052W,1.2
same,"The level of expressed mRNA in the presence of chemical substance/ (in its absence), gene YJL070C","yeast gene YJL070C, ratio of DNA chip fluorescence intensity to that without chemical substance",1.1
same,The level of expressed mRNA in the presence of chemical substance/The level of expressed mRNA in the absence of chemical substance,yeast gene YJL073W,1.1
same,The level of expressed mRNA in the presence of chemical substance/The level of expressed mRNA in the absence of chemical substance,yeast gene YJL089W,1.2
same,The level of expressed mRNA in the presence of chemical substance/ (ratio to absence),yeast gene YJL094C,2.1
same,"The level of expressed mRNA in the presence of chemical substance/ (ratio to absence), gene YJL096W","yeast gene YJL096W, mitochondria-located protein genes, 2 h culture with chemical",1.1
same,The level of expressed mRNA in the presence of chemical substance/The level of expressed mRNA in the absence of chemical substance,yeast gene YJL116C,1.2
same,The level of expressed mRNA in the presence of chemical substance/in the absence of chemical substance,yeast gene YJL153C,6.5
same,The level of expressed mRNA in the presence of chemical substance/ (ratio to absence of chemical substance),yeast gene YJL158C,1.4
same,"The level of expressed mRNA in the presence of chemical substance/ (in its absence), gene YJL167W","yeast gene YJL167W, ratio of DNA chip fluorescence intensity to that without chemical substance",1.4
same,"The level of expressed mRNA in the presence of chemical substance/ (ratio to absence), gene YJL180C","yeast gene YJL180C, mitochondria-located protein genes, 2 h culture with chemical",0.9
same,The level of expressed mRNA in the presence of chemical substance/,yeast gene YJL185C,1.0
same,The level of expressed mRNA in the presence of chemical substance/ (ratio to absence),yeast gene YJL212C,0.6
same,The level of expressed mRNA in the presence of chemical substance/,yeast gene YJL213W,2.1
same,"The level of expressed mRNA in the presence of chemical substance/ (in its absence), gene YJL216C","yeast gene YJL216C, ratio of DNA chip fluorescence intensity to that without chemical substance",1.2
same,The level of expressed mRNA in the presence of chemical substance/ (ratio to absence),yeast gene YJL219W,1.6
same,The level of expressed mRNA in the presence of chemical substance/The level of expressed mRNA in the absence of chemical substance,yeast gene YJR004C,0.4
same,The level of expressed mRNA in the presence of chemical substance/in the absence of chemical substance,yeast gene YJR009C,1.1
same,The level of expressed mRNA in the presence of chemical substance/in the absence of chemical substance,yeast gene YJR010W,1.2
same,The level of expressed mRNA in the presence of chemical substance/in the absence of chemical substance,yeast gene YJR073C,2.9
same,The level of expressed mRNA in the presence of chemical substance/,yeast gene YJR085C,1.4
same,The level of expressed mRNA in the presence of chemical substance/The level of expressed mRNA in the absence of chemical substance,yeast gene YJR086W,1.4
same,The level of expressed mRNA in the presence of chemical substance/ (ratio to absence of chemical substance),yeast gene YJR090C,1.1
same,The level of expressed mRNA in the presence of chemical substance/ (ratio to absence),yeast gene YJR095W,1.3
same,The level of expressed mRNA in the presence of chemical substance/ (ratio to absence),yeast gene YJR106W,1.2
same,The level of expressed mRNA in the presence of chemical substance/in the absence of chemical substance,yeast gene YJR130C,1.1
same,The level of expressed mRNA in the presence of chemical substance/in the absence of chemical substance,yeast gene YJR149W,1.1
same,The level of expressed mRNA in the presence of chemical substance/in the absence of chemical substance,yeast gene YJR155W,1.3
same,The level of expressed mRNA in the presence of chemical substance/in the absence of chemical substance,yeast gene YKL001C,2.7
same,The level of expressed mRNA in the presence of chemical substance/The level of expressed mRNA in the absence of chemical substance,yeast gene YKL008C,1.4
same,The level of expressed mRNA in the presence of chemical substance/The level of expressed mRNA in the absence of chemical substance,yeast gene YKL013C,1.6
same,The level of expressed mRNA in the presence of chemical substance/The level of expressed mRNA in the absence of chemical substance,yeast gene YKL039W,1.2
same,The level of expressed mRNA in the presence of chemical substance/The level of expressed mRNA in the absence of chemical substance,yeast gene YKL041W,1.1
same,The level of expressed mRNA in the presence of chemical substance/The level of expressed mRNA in the absence of chemical substance,yeast gene YKL096W,0.5
same,The level of expressed mRNA in the presence of chemical substance/,yeast gene YKL133C,1.2
same,The level of expressed mRNA in the presence of chemical substance/ (ratio to absence),yeast gene YKL146W,1.0
same,The level of expressed mRNA in the presence of chemical substance/,yeast gene YKL162C,0.8
same,The level of expressed mRNA in the presence of chemical substance/ (ratio to absence of chemical substance),yeast gene YKL164C,0.8
same,The level of expressed mRNA in the presence of chemical substance/The level of expressed mRNA in the absence of chemical substance,yeast gene YKL165C,0.9
same,The level of expressed mRNA in the presence of chemical substance/,yeast gene YKL187C,0.7
